In BigSolDB 2.1:

COc1ccccc1N1CCN(CC(O)COc2cccc3ccccc23)CC1 (centres undefined)
solubility (mole fraction)
Details | 273.15 K | 278.15 K | 283.15 K | 288.15 K | 293.15 K | 298.15 K | 303.15 K | 308.15 K | 313.15 K
in acetone | 0.00318 | 0.00399 | 0.00481 | 0.00579 | 0.00676 | 0.00782 | 0.00894 | 0.0102 | 0.0118
in acetonitrile | 0.00113 | 0.00132 | 0.00156 | 0.00182 | 0.00208 | 0.00244 | 0.0028 | 0.00321 | 0.00372
in ethanol | 0.000817 | 0.000955 | 0.00112 | 0.00131 | 0.00152 | 0.00175 | 0.00198 | 0.00229 | 0.00266
in ethyl acetate | 0.00438 | 0.00503 | 0.00585 | 0.0067 | 0.00768 | 0.0087 | 0.00998 | 0.0112 | 0.0126
in methanol | 0.00056 | 0.000636 | 0.000719 | 0.000822 | 0.000922 | 0.00104 | 0.00118 | 0.00133 | 0.0015
in toluene | 0.00534 | 0.00633 | 0.00727 | 0.00847 | 0.00978 | 0.0113 | 0.0129 | 0.0149 | 0.017
